Source: patent US20240382482A1, “PLASMA KALLIKREIN INHIBITORS” (TAKEDA PHARMACEUTICAL COMPANY LIMITED, priority 2021, published 2024)
pEC50: −log10 of the molar value.

What follows are compounds tested against human activated kallikrein enzyme (Homo sapiens, UniProt P03952) (assay: Inhibition of human activated kallikrein enzyme, fluorogenic peptide substrate assay (500 pM enzyme format)). Settings: 500 pM activated kallikrein, 300 μM PFR-AMC substrate, 30 min preincubation, 10 min reaction, room temperature; read-out: Primary Dose Response Assay: Average EC50.
human activated kallikrein enzyme, sequence (P03952 391-638 limits assumed): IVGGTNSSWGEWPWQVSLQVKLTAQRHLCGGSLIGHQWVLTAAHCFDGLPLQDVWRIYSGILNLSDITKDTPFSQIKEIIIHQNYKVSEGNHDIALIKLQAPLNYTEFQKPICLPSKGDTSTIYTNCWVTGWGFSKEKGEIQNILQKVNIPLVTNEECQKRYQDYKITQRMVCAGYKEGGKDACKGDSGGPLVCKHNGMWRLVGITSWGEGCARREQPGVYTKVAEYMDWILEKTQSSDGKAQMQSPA
human activated kallikrein enzyme, sequence (P03952 20-390 partner limits assumed): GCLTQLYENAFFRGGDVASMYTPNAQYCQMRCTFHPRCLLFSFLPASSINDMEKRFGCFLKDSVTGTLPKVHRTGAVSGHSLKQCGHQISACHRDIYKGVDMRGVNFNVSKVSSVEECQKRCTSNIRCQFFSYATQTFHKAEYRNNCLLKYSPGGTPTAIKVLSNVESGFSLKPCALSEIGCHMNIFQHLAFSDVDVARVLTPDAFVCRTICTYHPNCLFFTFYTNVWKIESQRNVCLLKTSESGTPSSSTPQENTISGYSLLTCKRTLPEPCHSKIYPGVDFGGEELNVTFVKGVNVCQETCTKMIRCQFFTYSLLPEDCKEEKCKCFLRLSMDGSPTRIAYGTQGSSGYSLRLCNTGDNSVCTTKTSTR
Type: biochemical
Experimental: Compounds were evaluated for inhibition of the human activated kallikrein enzyme in two formats of an assay employing a fluorogenic peptide substrate. In one assay format, the concentrations of reagents were as follows: 20 mM Tris pH 7.5, 1 mM EDTA, 150 mM sodium chloride, 0.1% PEG-400, 0.1% Triton X-100, 500 pM activated kallikrein enzyme, 300 μM Pro-Phe-Arg-7-amido-4-methylcoumarin (PFR-AMC) substrate. Prior to reaction initiation with substrate, enzyme and inhibitors were preincubated for 30 min at room temperature. After initiation with substrate, reactions were incubated for 10 min at room temperature and fluorescence emission at 460 nm from 380 nm excitation measured with a microplate reader. In another assay format, the concentrations of reagents were as follows: 20 mM Tris pH 7.5, 1 mM EDTA, 150 mM sodium chloride, 0.1% PEG-400, 0.1% Triton X-100, 5 pM activated kallikrein enzyme, 300 uM PFR-AMC substrate. Prior to reaction initiation with substrate, enzyme and inhibitors were preincubated for 30 min at room temperature. After initiation with substrate, reactions were incubated for 18 hr at room temperature and fluorescence emission at 460 nm from 380 nm excitation measured with a microplate reader.
Table 1 provides the results of the assay in the format with 500 pM activated kallikrein assay. For the compounds listed in Table 1, the EC50 values are reported according to the following ranges: A≤5.0 nM; 5.0 nM<B≤50 nM; 50 nM<C≤500 nM; 500 nM<D≤9000 nM; 9000 nM<E.

Row | Structure (SMILES) | pEC50
1 | N=S(=O)(Nc1cc(NCc2cn3cc(C4CC4)ccc3n2)ncn1)C1CC1c1cccc(Cl)c1 (racemic) [Example 142, (SR,1SR,2RS)-2-(3-chlorophenyl)-N-(6-(((6-cyclopropylimidazo[1,2-a]pyridin-2-yl)methyl)amino)pyrimidin-4-yl)cyclopropane-1-sulfonimidamide] | 5.05 to 6.30
2 | N#Cc1ccc(Cl)cc1CC(=O)Nc1cc(NCc2cn3cc(C4CC4)ccc3n2)ncn1 [Example 2, 2-(5-chloro-2-cyanophenyl)-N-(6-(((6-cyclopropylimidazo[1,2-a]pyridin-2-yl)methyl)amino)pyrimidin-4-yl)acetamide] | 5.05 to 6.30
3 | COc1ccc(C#N)c(CC(=O)Nc2cc(NCc3cn4cc(C5CC5)ccc4n3)ncn2)c1F [Example 3, 2-(6-cyano-2-fluoro-3-methoxyphenyl)-N-(6-(((6-cyclopropylimidazo[1,2-a]pyridin-2-yl)methyl)amino)pyrimidin-4-yl)acetamide] | 5.05 to 6.30
4 | CC(C)(C(=O)Nc1cc(NCc2cn3cc(C4CC4)ccc3n2)ncn1)c1ncn2ccc(Cl)cc12 [Example 5, 2-(7-chloroimidazo[1,5-a]pyridin-1-yl)-N-(6-(((6-cyclopropylimidazo[1,2-a]pyridin-2-yl)methyl)amino)pyrimidin-4-yl)-2-methylpropanamide] | 5.05 to 6.30
5 | COC(C(=O)Nc1cc(NCc2cn3cc(C4CC4)ccc3n2)ncn1)c1ncn2ccc(Cl)cc12 (stereo not shown) [Example 6, 2-(7-chloroimidazo[1,5-a]pyridin-1-yl)-N-(6-(((6-cyclopropylimidazo[1,2-a]pyridin-2-yl)methyl)amino)pyrimidin-4-yl)-2-methoxyacetamide] | 6.30 to 7.30
6 | CC(Cc1cccc(Cl)c1)C(=O)Nc1cc(NCc2cn3cc(C4CC4)ccc3n2)ncn1 (stereo not shown) [Example 7, 3-(3-chlorophenyl)-N-(6-(((6-cyclopropylimidazo[1,2-a]pyridin-2-yl)methyl)amino)pyrimidin-4-yl)-2-methylpropanamide] | 5.05 to 6.30
7 | O=C(CCc1cccc(Cl)c1)Nc1cc(NCc2cn3cc(C4CC4)ccc3n2)ncn1 [Example 8, 3-(3-chlorophenyl)-N-(6-(((6-cyclopropylimidazo[1,2-a]pyridin-2-yl)methyl)amino)pyrimidin-4-yl)propanamide] | 5.05 to 6.30
8 | CC(C(=O)Nc1cc(NCc2cn3cc(C4CC4)ccc3n2)ncn1)N(C)c1cccc(Cl)c1 (stereo not shown) [Example 9, 2-((3-chlorophenyl)(methyl)amino)-N-(6-(((6-cyclopropylimidazo[1,2-a]pyridin-2-yl)methyl)amino)pyrimidin-4-yl)propanamide] | 5.05 to 6.30
9 | O=C(Cc1cc(Cl)ccc1-c1nnn[nH]1)Nc1cc(NCc2cn3cc(C4CC4)ccc3n2)ncn1 [Example 10, 2-(5-chloro-2-(1H-tetrazol-5-yl)phenyl)-N-(6-(((6-cyclopropylimidazo[1,2-a]pyridin-2-yl)methyl)amino)pyrimidin-4-yl)acetamide] | < 5.05
10 | NC(=O)c1ccc(Cl)cc1CC(=O)Nc1cc(NCc2cn3cc(C4CC4)ccc3n2)ncn1 [Example 11, 4-chloro-2-(2-((6-(((6-cyclopropylimidazo[1,2-a]pyridin-2-yl)methyl)amino)pyrimidin-4-yl)amino)-2-oxoethyl)benzamide] | 5.05 to 6.30
11 | O=C(Cn1nnc2ccc(Cl)cc21)Nc1cc(NCc2cn3cc(C4CC4)ccc3n2)ccn1 [Example 27, 2-(6-chloro-1H-benzo[d][1,2,3]triazol-1-yl)-N-(4-(((6-cyclopropylimidazo[1,2-a]pyridin-2-yl)methyl)amino)pyridin-2-yl)acetamide] | 5.05 to 6.30
12 | O=C(Cn1cnc2ccc(Cl)cc21)Nc1cc(NCc2cn3cc(C4CC4)ccc3n2)ccn1 [Example 28, 2-(6-chloro-1H-benzo[d]imidazol-1-yl)-N-(4-(((6-cyclopropylimidazo[1,2-a]pyridin-2-yl)methyl)amino)pyridin-2-yl)acetamide] | 5.05 to 6.30
13 | Nc1nccc2c1CC(C(=O)Nc1cc(NCc3cn4cc(C5CC5)ccc4n3)ccn1)C2 (stereo not shown) [Example 29, 1-amino-N-(4-(((6-cyclopropylimidazo[1,2-a]pyridin-2-yl)methyl)amino)pyridin-2-yl)-6,7-dihydro-5H-cyclopenta[c]pyridine-6-carboxamide] | 5.05 to 6.30
14 | O=C(Cc1ncn2ccc(Cl)cc12)Nc1cnnc(OCc2cn3cc(C4CC4)ccc3n2)c1 [Example 34, 2-(7-chloroimidazo[1,5-a]pyridin-1-yl)-N-(6-((6-cyclopropylimidazo[1,2-a]pyridin-2-yl)methoxy)pyridazin-4-yl)acetamide] | 6.30 to 7.30

Continued, values first:

Row | pEC50 | Structure (SMILES)
15 | 7.30 to 8.30 | CC(C(=O)Nc1cc(NCc2cn3cc(C4CC4)ccc3n2)ncn1)c1ncn2ccc(Cl)cc12 (stereo not shown) [Example 4, 2-(7-chloroimidazo[1,5-a]pyridin-1-yl)-N-(6-(((6-cyclopropylimidazo[1,2-a]pyridin-2-yl)methyl)amino)pyrimidin-4-yl)propanamide]
16 | ≥ 8.30 | N#Cc1cc(C2CC2)cn2cc(CNc3cc(NC(=O)Cc4ncn5ccc(Cl)cc45)ncn3)nc12 [Example 13, 2-(7-chloroimidazo[1,5-a]pyridin-1-yl)-N-(6-(((8-cyano-6-cyclopropylimidazo[1,2-a]pyridin-2-yl)methyl)amino)pyrimidin-4-yl)acetamide]
17 | ≥ 8.30 | N#Cc1cc(C2CC2)cn2cc(CNc3cc(NC(=O)Cc4cc(Cl)ccc4-n4cnnn4)ncn3)nc12 [Example 15, 2-(5-chloro-2-(1H-tetrazol-1-yl)phenyl)-N-(6-(((8-cyano-6-cyclopropylimidazo[1,2-a]pyridin-2-yl)methyl)amino)pyrimidin-4-yl)acetamide]
18 | ≥ 8.30 | O=C(Cc1ncn2ccc(Cl)cc12)Nc1ccnc(NCc2cn3cc(C4CC4)ccc3n2)n1 [Example 16, 2-(7-chloroimidazo[1,5-a]pyridin-1-yl)-N-(2-(((6-cyclopropylimidazo[1,2-a]pyridin-2-yl)methyl)amino)pyrimidin-4-yl)acetamide]
19 | ≥ 8.30 | CN(Cc1cn2cc(C3CC3)cc(N3CCCC3=O)c2n1)c1cc(NC(=O)Cc2ncn3ccc(Cl)cc23)ncn1 [Example 18]
20 | ≥ 8.30 | O=C(Cc1ncn2ccc(Cl)cc12)Nc1cc(NCc2cn3cc(C4CC4)cc(C4(F)COC4)c3n2)ncn1 [Example 19, 2-(7-chloroimidazo[1,5-a]pyridin-1-yl)-N-(6-(((6-cyclopropyl-8-(3-fluorooxetan-3-yl)imidazo[1,2-a]pyridin-2-yl)methyl)amino)pyrimidin-4-yl)acetamide]
21 | ≥ 8.30 | CCOC(=O)c1nc(NCc2cn3cc(C4CC4)ccc3n2)cc(NC(=O)Cc2ncn3ccc(Cl)cc23)n1 [Example 20, ethyl 4-(2-(7-chloroimidazo[1,5-a]pyridin-1-yl)acetamido)-6-(((6-cyclopropylimidazo[1,2-a]pyridin-2-yl)methyl)amino)pyrimidine-2-carboxylate]
22 | ≥ 8.30 | O=C(Cc1ncn2ccc(Cl)cc12)Nc1cc(NCc2cn3cc(C4CC4)ccc3n2)nc(C(=O)O)n1 [Example 21, 4-(2-(7-chloroimidazo[1,5-a]pyridin-1-yl)acetamido)-6-(((6-cyclopropylimidazo[1,2-a]pyridin-2-yl)methyl)amino)pyrimidine-2-carboxylic acid]
23 | 7.30 to 8.30 | N#Cc1cc(C2CC2)cn2cc(COc3cc(NC(=O)Cc4ncn5ccc(Cl)cc45)ncn3)nc12 [Example 22, 2-(7-chloroimidazo[1,5-a]pyridin-1-yl)-N-(6-((8-cyano-6-cyclopropylimidazo[1,2-a]pyridin-2-yl)methoxy)pyrimidin-4-yl)acetamide]
24 | 7.30 to 8.30 | O=C(Cc1ncn2ccc(Cl)cc12)Nc1cc(OCc2cn3cc(C4CC4)ccc3n2)ccn1 [Example 23, 2-(7-chloroimidazo[1,5-a]pyridin-1-yl)-N-(4-((6-cyclopropylimidazo[1,2-a]pyridin-2-yl)methoxy)pyridin-2-yl)acetamide]
25 | 7.30 to 8.30 | COc1ccnc(CC(=O)Nc2cc(NCc3cn4cc(C5CC5)cc(N5CCCC5=O)c4n3)ccn2)c1F [Example 24, N-(4-(((6-cyclopropyl-8-(2-oxopyrrolidin-1-yl)imidazo[1,2-a]pyridin-2-yl)methyl)amino)pyridin-2-yl)-2-(3-fluoro-4-methoxypyridin-2-yl)acetamide]
26 | ≥ 8.30 | O=C(Cc1ncn2ccc(Cl)cc12)Nc1cc(NCc2cn3cc(C4CC4)ccc3n2)ccn1 [Example 25, 2-(7-chloroimidazo[1,5-a]pyridin-1-yl)-N-(4-(((6-cyclopropylimidazo[1,2-a]pyridin-2-yl)methyl)amino)pyridin-2-yl)acetamide]
27 | ≥ 8.30 | O=C(Cc1ncn2ccc(Cl)cc12)Nc1cc(OCc2cn3cc(C4CC4)ccc3n2)cnn1 [Example 32, 2-(7-chloroimidazo[1,5-a]pyridin-1-yl)-N-(5-((6-cyclopropylimidazo[1,2-a]pyridin-2-yl)methoxy)pyridazin-3-yl)acetamide]
28 | 7.30 to 8.30 | O=C(Cc1ncn2ccc(Cl)cc12)Nc1cc(OCc2cn3cc(C4CC4)ccc3n2)ncn1 [Example 33, 2-(7-chloroimidazo[1,5-a]pyridin-1-yl)-N-(6-((6-cyclopropylimidazo[1,2-a]pyridin-2-yl)methoxy)pyrimidin-4-yl)acetamide]
